Source: patent US20240398757A1 (COCRYSTAL PHARMA, INC., priority 2022, published 2024)

Each compound was assayed against T1, SARS2 protease (Severe acute respiratory syndrome coronavirus 2, UniProt P0DTD1) (assay: SARS-CoV-2 protease inhibition assay (SARS2 FRET protease assay)). Conditions: IC50 (μM), SARS2 protease 30 nM, peptide substrate 1.3 μM, 120 minutes at 37° C., compounds 20 μM to 0.075 nM.
T1 construct: SARS2 protease was added to a final concentration of 30 nM
Assay type: biochemical

Compared with `O=C[C@H](C[C@@H]1CCNC1=O)NC(=O)[C@H](CCC(F)F)NC(=O)OC(c1ccccc1)C(F)(F)c1cccc(Cl)c1` (stereo partly drawn) [Compound A163, 2-(3-chlorophenyl)-2,2-difluoro-1-phenylethyl ((S)-5,5-difluoro-1-oxo-1-(((S)-1-oxo-3-((S)-2-oxopyrrolidin-3-yl)propan-2-yl)amino)pentan-2-yl)carbamate], `CCC[C@H](NC(=O)O[C@H](c1ccccc1)C(F)(F)c1cccc(Cl)c1)C(=O)N[C@H](C=O)C[C@@H]1CCNC1=O` [Compound A208] is 4.2-fold lower in IC50: 0.017 µM for the first, 0.004 µM for the second.

Going from `CCC[C@H](NC(=O)O[C@@H](c1ccccc1)C(F)(F)c1cccc(F)c1)C(=O)N[C@H](C=O)C[C@@H]1CCNC1=O` [Compound A166] to `CCC[C@H](NC(=O)O[C@H](c1ccccc1)C(F)(F)c1cccc(F)c1)C(=O)N[C@H](C=O)C[C@@H]1CCNC1=O` [Compound A172], the IC50 rises from 0.0025 µM to 0.0185 µM (7.4-fold).

First: CCCC[C@H](NC(=O)OC(c1ccccc1)C(F)(F)c1cccc(Cl)c1)C(=O)N[C@@H](C[C@H]1CCNC1=O)C(=O)C(=O)NC1CC1 (stereo partly drawn) [Compound A168]
Second: CCCC[C@H](NC(=O)O[C@@H](c1ccccc1)C(F)(F)c1cccc(Cl)c1)C(=O)N[C@@H](C[C@@H]1CCCNC1=O)C(=O)C(=O)NC1CC1 [Compound A195]
The IC50 of the first is 3.6-fold higher: 0.75 µM for the first, 0.211 µM for the second. The second is the more potent here.

`O=C(N[C@@H](CC1CCCCC1)C(=O)N[C@@H](C[C@H]1CCNC1=O)C(=O)C(=O)NC1CC1)OC(c1ccccc1)C(F)(F)c1cccc(Cl)c1` (stereo partly drawn) [Compound A169] and `O=C(N[C@@H](CC1CCCCC1)C(=O)N[C@@H](C[C@@H]1CCNC1=O)C(=O)C(=O)NC1CC1)O[C@H](c1ccccc1)C(F)(F)c1cccc(Cl)c1` [Compound A175] are within 1.5-fold of each other in IC50: 1.25 µM for the first, 1.36 µM for the second.

Compared with `CC(C)C[C@H](NC(=O)OC(c1ccccc1)C(F)(F)c1cccc(C2CC2)c1)C(=O)N[C@@H](C[C@@H]1CCNC1=O)C(=O)C(=O)NC1CC1` (stereo partly drawn) [Compound A170], `CC(C)C[C@H](NC(=O)OC(c1ccccc1)C(F)(F)c1cccc(C(C)C)c1)C(=O)N[C@@H](C[C@@H]1CCNC1=O)C(=O)C(=O)NC1CC1` (stereo partly drawn) [Compound A182] is 5-fold higher in IC50: 0.0002 µM for the first, 0.001 µM for the second. The first is the more potent here.

First: CC(C)C[C@H](NC(=O)OC(c1ccccc1)C(C)(C)c1cccc(C(F)(F)F)c1)C(=O)N[C@H](C=O)C[C@@H]1CCNC1=O (stereo partly drawn) [Compound A171]
Second: CC(C)C[C@H](NC(=O)OC(c1ccccc1)C(C)(C)c1cccc(C(F)(F)F)c1)C(=O)N[C@@H](C[C@@H]1CCNC1=O)C(=O)C(=O)NC1CC1 (stereo partly drawn) [Compound A197]
The IC50 of the first is 270-fold lower: 0.0001 µM for the first, 0.027 µM for the second.

Compared with `CCNC(=O)C(=O)[C@H](C[C@@H]1CCNC1=O)NC(=O)[C@H](CC1CC1)NC(=O)O[C@@H](c1ccccc1)C(F)(F)c1cccc(Cl)c1` [Compound A174], `CCNC(=O)C(=O)[C@H](C[C@H]1CCNC1=O)NC(=O)[C@H](CC1CCCCC1)NC(=O)OC(c1ccccc1)C(F)(F)c1cccc(Cl)c1` (stereo partly drawn) [Compound A207] is 550-fold higher in IC50: 0.0014 µM for the first, 0.764 µM for the second.

Compared with `O=C(N[C@@H](CC1CC1)C(=O)N[C@@H](C[C@@H]1CCNC1=O)C(=O)C(=O)NC1CC1)O[C@@H](c1ccccc1)C(F)(F)c1cccc(Cl)c1` [Compound A176], `O=C(N[C@@H](CCCF)C(=O)N[C@@H](C[C@@H]1CCNC1=O)C(=O)C(=O)NC1CC1)OC(c1ccccc1)C(F)(F)c1cccc(Cl)c1` (stereo partly drawn) [Compound A180] is 48-fold higher in IC50: 0.002 µM for the first, 0.095 µM for the second. The first is the more potent here.

`CCCC[C@H](NC(=O)O[C@H](c1ccccc1)C(C)(C)c1cccc(Cl)c1)C(=O)N[C@@H](C[C@@H]1CCNC1=O)C(=O)C(=O)NC1CC1` [Compound A178] and `CCCC[C@H](NC(=O)OC(c1ccccc1)C(C)(C)c1cccc(Cl)c1)C(=O)N[C@@H](C[C@@H]1CCNC1=O)C(=O)C(=O)NC1CC1` (stereo partly drawn) [Compound A189] are within 1.5-fold of each other in IC50: 1.04 µM for the first, 1.37 µM for the second.

First: O=C(N[C@@H](CCC(F)F)C(=O)N[C@@H](C[C@@H]1CCNC1=O)C(=O)C(=O)NC1CC1)OC(c1ccccc1)C(F)(F)c1cccc(Cl)c1 (stereo partly drawn) [Compound A179, 2-(3-chlorophenyl)-2,2-difluoro-1-phenylethyl ((S)-1-(((S)-4-(cyclopropylamino)-3,4-dioxo-1-((S)-2-oxopyrrolidin-3-yl)butan-2-yl)amino)-5,5-difluoro-1-oxopentan-2-yl)carbamate]
Second: CCCC[C@H](NC(=O)O[C@@H](c1ccc(F)cc1)C(F)(F)c1cccc(Cl)c1)C(=O)N[C@@H](C[C@@H]1CCNC1=O)C(=O)C(=O)NC1CC1 [Compound A199]
The IC50 of the first is 82-fold lower: 0.006 µM for the first, 0.494 µM for the second. The first is the more potent here.

Compared with `CC(C)C[C@H](NC(=O)OC(C(C)C)C(F)(F)c1cccc(C2CC2)c1)C(=O)N[C@@H](C[C@@H]1CCNC1=O)C(=O)C(=O)NC1CC1` (stereo partly drawn) [Compound A181], `CC(C)C[C@H](NC(=O)OC(C(C)C)C(F)(F)c1cccc(C2CC2)c1)C(=O)N[C@H](C=O)C[C@@H]1CCNC1=O` (stereo partly drawn) [Compound A198] is 87-fold lower in IC50: 0.52 µM for the first, 0.006 µM for the second.

First: CCCC[C@H](NC(=O)OC(c1ccccc1)C(F)(F)c1cccc(Cl)c1)C(=O)N[C@H](C=O)C[C@H]1CCNC1=O (stereo partly drawn) [Compound A183]
Second: CCCC[C@H](NC(=O)OC(c1ccccc1)C(F)(F)c1cccc(Cl)c1)C(=O)NC(C)(C=O)CC1CCNC1=O (stereo partly drawn) [Compound A192]
The IC50 of the first is 51-fold lower: 0.019 µM for the first, 0.978 µM for the second. The first is the more potent here.

Compared with `CCCC[C@H](NC(=O)OC(c1ccccc1)C(F)(F)c1cccc(Cl)c1)C(=O)N[C@@H](C[C@H]1CCNC1=O)C(=O)C(=O)NCC` (stereo partly drawn) [Compound A185], `CCNC(=O)C(=O)[C@H](C[C@H]1CCNC1=O)NC(=O)[C@H](CC(C)C)NC(=O)OC(c1ccccc1)C(F)(F)c1cccc(Cl)c1` (stereo partly drawn) [Compound A188] is 2.3-fold lower in IC50: 0.91 µM for the first, 0.392 µM for the second.

First: CCCC(=O)OC([C@H](C[C@@H]1CCNC1=O)NC(=O)[C@H](CC1CCCCC1)NC(=O)O[C@H](c1ccccc1)C(F)(F)c1cccc(Cl)c1)S(=O)(=O)O (stereo partly drawn) [Compound A186]
Second: CCC(=O)OC([C@H](C[C@@H]1CCNC1=O)NC(=O)[C@H](CC1CCCCC1)NC(=O)O[C@@H](c1ccccc1)C(F)(F)c1cccc(Cl)c1)S(=O)(=O)O (stereo partly drawn) [Compound A211]
The IC50 of the first is 1.6-fold lower: 0.319 µM for the first, 0.504 µM for the second.

Going from `CC(C)C[C@H](NC(=O)OC(c1ccccc1)C(F)(F)c1cccc(-c2ccccc2)c1)C(=O)N[C@@H](C[C@@H]1CCNC1=O)C(=O)C(=O)NC1CC1` (stereo partly drawn) [Compound A191] to `CC(C)C[C@H](NC(=O)O[C@@H](c1ccccc1)C(F)(F)c1cccc(C(C)C)c1)C(=O)N[C@@H](C[C@@H]1CCNC1=O)C(=O)C(=O)NC1CC1` [Compound A193], the IC50 rises from 0.006 µM to 0.135 µM (22-fold).

First: CC(C)C[C@H](NC(=O)O[C@H](c1ccccc1)C(F)(F)c1cccc(C(C)C)c1)C(=O)N[C@@H](C[C@@H]1CCNC1=O)C(=O)C(=O)NC1CC1 [Compound A194]
Second: CCCC[C@H](NC(=O)O[C@H](c1ccc(F)cc1)C(F)(F)c1cccc(Cl)c1)C(=O)N[C@@H](C[C@@H]1CCNC1=O)C(=O)C(=O)NC1CC1 [Compound A200]
The IC50 of the first is 12-fold higher: 0.005 µM for the first, 0.0004 µM for the second.

Compared with `CCCC[C@H](NC(=O)O[C@H](c1cccc(F)c1)C(F)(F)c1cccc(F)c1)C(=O)N[C@H](C=O)C[C@@H]1CCNC1=O` [Compound A201], `O=C[C@H](C[C@@H]1CCNC1=O)NC(=O)[C@H](CC1CCC1)NC(=O)O[C@H](c1ccccc1)C(F)(F)c1cccc(Cl)c1` [Compound A205] is 5-fold lower in IC50: 0.001 µM for the first, 0.0002 µM for the second. The second is the more potent here.

First: CC(C)C[C@H](NC(=O)O[C@@H](c1ccc(F)cc1)C(C)(C)c1cccc(Cl)c1)C(=O)N[C@H](C=O)C[C@@H]1CCNC1=O [Compound A202]
Second: NC(=O)C(=O)[C@H](C[C@@H]1CCNC1=O)NC(=O)[C@H](CC1CCCCC1)NC(=O)OC(c1ccccc1)C(F)(F)c1cccc(Cl)c1 (stereo partly drawn) [Compound A204]
The IC50 of the first is 21-fold higher: 0.021 µM for the first, 0.001 µM for the second.
